In patent publication US5661165A, “((4-phenyl-1,2,5-thiadiazol-3-yl)oxy)methyl ester thiocyanic acid compounds, compositions containing them and their use as antimicrobial and marine antifouling agents” (The Dow Chemical Company, priority 1996, dated 1997) one finds MIC data, which are given here for one compound.

Values after ≈ are worked out from the molar mass of the structure shown. Read-outs that look alike come from different tables or passages of the source.

Assay [1] has as its system Pencillium chrysogenum (Pc). The assay can be described thus: MIC against yeast/fungi (malt yeast agar). The format is cell-based, Pencillium chrysogenum ATCC 9480. Conditions: 30° C., fungi read after 72 h, read-out: Minimum Inhibitory Concentration, Pc. Here is the method: (§1) The antimicrobial activity of the compounds of the present invention is set forth as the minimum inhibitory concentration (MIC) for the active compounds and is determined for nine (9) bacteria, using nutrient agar, and seven (7) yeast and fungi, using malt yeast agar. This determination is conducted using a one percent solution of the test compound prepared in a mixture of acetone and water.
(§2) Malt yeast agar is prepared by adding 3 g yeast extract and 45 g malt agar per liter of deionized water. The specific agar is dispensed in 30 mL aliquots into 25×200 mm test tubes, capped and autoclaved for 15 minutes at 115° C.
(§3) The test tubes containing the agar are cooled in a water bath until the temperature of the agar is 48° C. Then, an appropriate amount of the one percent solution of the test compound is added (except in the controls where no compound is added) to the respective test tubes so that the final concentrations are 500, 250, 100, 50, 25, 10, 5, 2.5, 1.0 and zero parts per million of the test compound in the agar, thus having a known concentration of test compound dispersed therein. The contents of the test tubes are then transferred to respective petri plates. After drying for 24 hours, the petri plates containing nutrient agar are inoculated with bacteria and those containing malt yeast agar are inoculated with yeast and fungi.
(§4) The inoculation with the yeast and fungi is accomplished as follows. Cultures of yeast and fungi are incubated for seven days on malt yeast agar at 30° C. These cultures are used to prepare suspensions by the following procedure. A suspension of each organism is prepared by adding 10 mL of sterile saline and 10 microliters of octylphenoxy polyethoxy ethanol to the agar slant of yeast or fungi. The sterile saline/octylphenoxy polyethoxy ethanol solution is then agitated with a sterile swab to suspend the microorganism grown on the slant. Each resulting suspension is diluted into sterile saline (1 part suspension to 9 parts sterile saline). Aliquots of these dilutions are placed in individual wells of Steer's Replicator and petri plates inoculated as previously described. The petri plates are incubated at 30° C. and read after 48 hours for yeast and 72 hours for fungi.
(§5) Table I lists the bacteria, yeast and fungi used in the MIC test described above along with their respective American Type Culture Collection (ATCC) identification numbers.

The next assay deals with Escherichia coli (Ec). The assay can be described thus: MIC against bacteria (nutrient agar). The format is cell-based, Escherichia coli ATCC 11229. Particulars: 30° C., 48 h, read-out: Minimum Inhibitory Concentration, Ec.
The subject of assay [2] is Salmonella choleraesuis (Sc). The assay can be described thus: MIC against bacteria (nutrient agar). The format is cell-based, Salmonella choleraesuis ATCC 10708. Conditions: Salmonella enterica, 30° C., 48 h, read-out: Minimum Inhibitory Concentration, Sc.
Assay [3] concerns Psuedomonas aeruginosa (PRD-10). The assay can be described thus: MIC against bacteria (nutrient agar). The assay is classed as cell-based, Psuedomonas aeruginosa ATCC 15442. Conditions: 30° C., 48 h, read-out: Minimum Inhibitory Concentration, PRD.
Assay [4] relates to Staphylococcus aureus (Sa). The assay can be described thus: MIC against bacteria (nutrient agar). The assay is classed as cell-based, Staphylococcus aureus ATCC 6538. Conditions: 30° C., 48 h, read-out: Minimum Inhibitory Concentration, Sa.
The test system of the next assay is Aperigillus niger (An). The assay can be described thus: MIC against yeast/fungi (malt yeast agar). The format is cell-based, Aperigillus niger ATCC 16404. Particulars: 30° C., fungi read after 72 h, read-out: Minimum Inhibitory Concentration, An. Here is the method: as §1, §2, §3, §4, §5
The test system of the next assay is Trichoderma viride (Tv). The assay can be described thus: MIC against yeast/fungi (malt yeast agar). The format is cell-based, Trichoderma viride ATCC 8678. Conditions: 30° C., fungi read after 72 h, read-out: Minimum Inhibitory Concentration, Tv. Here is the method:
as §1, §2, §3, §4, §5

Assay [5] relates to Enterobacter aerogenes (Ea). The assay can be described thus: MIC against bacteria (nutrient agar). The assay is classed as cell-based, Enterobacter aerogenes ATCC 13048. Conditions: Klebsiella aerogenes, 30° C., 48 h, read-out: Minimum Inhibitory Concentration, Ea.
The subject of assay [6] is Aureobasidium pullulan (Ap). The assay can be described thus: MIC against yeast/fungi (malt yeast agar). The format is cell-based, Aureobasidium pullulan ATCC 16622. Conditions: 30° C., yeast 48 h / fungi 72 h, read-out: Minimum Inhibitory Concentration, Ap. Here is the method: as §1, §2, §3, §4, §5
Assay [7] deals with Klebsiella pneumoniae (Kp). The assay can be described thus: MIC against bacteria (nutrient agar). The format is cell-based, Klebsiella pneumoniae ATCC 8308. Conditions: 30° C., 48 h, read-out: Minimum Inhibitory Concentration, Kp.

As to `N#CSCOc1nsnc1-c1ccccc1` [Example I, ((4-Phenyl-1,2,5-thiadiazol-3-yl)oxy)methyl ester thiocyanic acid], the MIC is less than 1 µg/mL in [1]; 500 µg/mL (≈ 2010 µM) in the assay on Escherichia coli (Ec) (pH 6.8, nutrient agar); greater than 500 µg/mL in the assay with Escherichia coli (Ec) (pH 8.2, nutrient agar); 500 µg/mL (≈ 2010 µM) in assay [2] (pH 6.8, nutrient agar); greater than 500 µg/mL in [2] (pH 8.2, nutrient agar); greater than 500 µg/mL in assay [3] (pH 6.8, nutrient agar). Further, the MIC was greater than 500 µg/mL in assay [3] (pH 8.2, nutrient agar); 25 µg/mL (≈ 100 µM) in [4] (pH 6.8, nutrient agar); 25 µg/mL (≈ 100 µM) in assay [4] (pH 8.2, nutrient agar); less than 1 µg/mL in the assay with Aperigillus niger (An); 25 µg/mL (≈ 100 µM) in the assay with Trichoderma viride (Tv); greater than 500 µg/mL in assay [5] (pH 6.8, nutrient agar). Also, the MIC is 500 µg/mL (≈ 2010 µM) in assay [5] (pH 8.2, nutrient agar); less than 1 µg/mL in assay [6]; 500 µg/mL (≈ 2010 µM) in assay [7] (pH 6.8, nutrient agar); 500 µg/mL (≈ 2010 µM) in assay [7] (pH 8.2, nutrient agar).
